According to patent US10517889B2, “Modulators of SMAD7 expression” (Ionis Pharmaceuticals, Inc., priority 2017, dated 2019):
Values joined by “and” are separate entries in the source; they are usually repeats but may differ in a detail not shown here. Identical values can stand only once. Strand notation (5' to 3'): a small letter for the sugar, then the base; units joined by * are phosphorothioate-linked, units joined directly phosphodiester-linked; [ ] holds rarer units or linkages, { } end groups; capitals alone tell only the bases. e = 2'-O-(2-methoxyethyl) (MOE); [5mC] = 5-methylcytosine; d = 2'-deoxy (DNA)

Columns and labels:
[1] = tested on: human SMAD7 mRNA; test: Antisense inhibition of human SMAD7 mRNA expression in Hep3B cells by 5-10-5 MOE gapmers, single concentration, electroporation, RT-PCR (Example 1, Study 1 and 2); type: cell-based
Procedure, shortened: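 Hep3B cells (20,000/well) electroporated with 5-10-5 MOE gapmer at 5,000 nM or 15,000 nM for approximately 24 h. SMAD7 mRNA quantified by real-time PCR with primer probe set RTS5062 and normalized to RIBOGREEN total RNA. Values are percent inhibition relative to untreated controls.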

[2] = tested on: human SMAD7 mRNA; test: Dose-dependent inhibition of human SMAD7 mRNA expression in Hep3B cells (Example 3, Study 1 and 2); type: cell-based; settings: electroporation; for % inhibition of SMAD7 mRNA expression: approximately 16 hours; for IC50: Study 1 (312.5-20000 nM)
Procedure, shortened: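 Hep3B cells, 20,000 per well, electroporated with antisense oligonucleotide at 0.31, 1.25, 5.00 or 20.00 μM (first series) or 0.74, 2.22, 6.67 or 20.00 μM (second series). After ~16 h, SMAD7 mRNA measured by RT-qPCR (RTS5062), normalised to RIBOGREEN total RNA. Percent inhibition vs untreated cells; IC50 derived.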

[3] = Study 2, electroporation with 15,000 nM antisense oligonucleotide, 5-10-5 MOE gapmers targeting SEQ ID NO: 1 and 2
[4] = 312.5 nM, Study 1, relative to untreated control cells
[5] = electroporation, 5,000 nM, approximately 24 hours, relative to untreated control cells, gapmers targeting SEQ ID NO: 1 and 2
[6] = electroporation, 15,000 nM antisense oligonucleotide (Study 2), 5-10-5 MOE gapmers targeting SEQ ID NO: 1 and 2
[7] = electroporation with 15,000 nM antisense oligonucleotide (Study 2), 5-10-5 MOE gapmers targeting SEQ ID NO: 1 and 2

Substance: 771799 (antisense e[5mC]*eT*eT*e[5mC]*e[5mC]*dA*dA*d[5mC]*dA*d[5mC]*dA*dT*dG*d[5mC]*dT*e[5mC]*eT*eG*e[5mC]*eA) [compound 771799]
- % Inhibition [1, 3]: 57%
- % inhibition of SMAD7 mRNA expression [2, 4]: 0%
- % inhibition of SMAD7 mRNA expression ([2]; 1250.0 nM, Study 1): 8%
- % inhibition of SMAD7 mRNA expression ([2]; 5000.0 nM, Study 1): 28%
- % inhibition of SMAD7 mRNA expression ([2]; 20000.0 nM, Study 1): 48%
- IC50 [2]: > 20 µM

Substance: 771782 (antisense eT*eA*eG*eG*eA*d[5mC]*dT*dG*dG*dA*dA*dG*dA*dG*d[5mC]*eT*eT*eT*eG*eG) [compound 771782]
- % Inhibition [1, 3]: 50%
- % inhibition of SMAD7 mRNA expression [2, 4]: 0%
- % inhibition of SMAD7 mRNA expression ([2]; 1250.0 nM, Study 1): 9%
- % inhibition of SMAD7 mRNA expression ([2]; 5000.0 nM, Study 1): 27%
- % inhibition of SMAD7 mRNA expression ([2]; 20000.0 nM, Study 1): 38%
- IC50 [2]: > 20 µM

Substance: 771444 (eA*eG*e[5mC]*e[5mC]*eT*d[5mC]*dT*dT*dG*dA*d[5mC]*dT*dT*d[5mC]*d[5mC]*eG*eA*eG*eG*eA; antisense) [compound 771444]
- % Inhibition [1, 3]: 67%
- % inhibition of SMAD7 mRNA expression [1, 5]: 65%
- % inhibition of SMAD7 mRNA expression [2, 4]: 0%
- % inhibition of SMAD7 mRNA expression ([2]; 1250.0 nM, Study 1): 0%
- % inhibition of SMAD7 mRNA expression ([2]; 5000.0 nM, Study 1): 9%
- % inhibition of SMAD7 mRNA expression ([2]; 20000.0 nM, Study 1): 29%
- IC50 [2]: > 20 µM

Substance: 771439 (eG*eG*e[5mC]*eT*eG*d[5mC]*dG*d[5mC]*dG*d[5mC]*d[5mC]*dG*dG*d[5mC]*dG*eG*eG*e[5mC]*eG*e[5mC]; antisense) [compound 771439]
- % Inhibition [1, 3]: 48%
- % inhibition of SMAD7 mRNA expression [2, 4]: 0%
- % inhibition of SMAD7 mRNA expression ([2]; 1250.0 nM, Study 1): 24%
- % inhibition of SMAD7 mRNA expression ([2]; 5000.0 nM, Study 1): 49%
- % inhibition of SMAD7 mRNA expression ([2]; 20000.0 nM, Study 1): 55%
- IC50 [2]: 9 µM

Substance: 771733 (antisense eT*eG*eA*e[5mC]*eA*dG*d[5mC]*d[5mC]*dA*d[5mC]*dA*dA*dG*dT*d[5mC]*eA*e[5mC]*eA*eA*e[5mC]) [compound 771733]
- % inhibition of SMAD7 mRNA expression ([1]; electroporation, 15,000 nM, approximately 24 hours, relative to untreated control cells, gapmers targeting SEQ ID NO: 1 and 2): 75%
- % inhibition of SMAD7 mRNA expression [2, 4]: 0%
- % inhibition of SMAD7 mRNA expression ([2]; 1250.0 nM, Study 1): 0%
- % inhibition of SMAD7 mRNA expression ([2]; 5000.0 nM, Study 1): 26%
- % inhibition of SMAD7 mRNA expression ([2]; 20000.0 nM, Study 1): 61%
- IC50 [2]: 16 µM

Substance: 771737 (antisense eT*e[5mC]*eA*eA*eA*dT*dG*dA*dA*d[5mC]*d[5mC]*d[5mC]*dT*dG*dG*eT*eT*eA*eT*eA) [compound 771737]
- % inhibition of SMAD7 mRNA expression [1, 6]: 57%
- % inhibition of SMAD7 mRNA expression [2, 4]: 0%
- % inhibition of SMAD7 mRNA expression ([2]; 1250.0 nM, Study 1): 2%
- % inhibition of SMAD7 mRNA expression ([2]; 5000.0 nM, Study 1): 0%
- % inhibition of SMAD7 mRNA expression ([2]; 20000.0 nM, Study 1): 16%

Substance: 771636 (antisense e[5mC]*e[5mC]*eT*eT*eG*dG*dG*dT*dT*dA*dT*dG*dA*d[5mC]*dG*eG*eA*e[5mC]*e[5mC]*eA) [compound 771636]
- % inhibition of SMAD7 mRNA expression [1, 3]: 0%
- IC50 [2]: > 20 µM and 16 µM

Substance: 771663 (antisense eT*eT*e[5mC]*e[5mC]*eA*dA*dT*dG*dA*dG*dA*dA*dT*dG*d[5mC]*eT*eT*e[5mC]*eT*e[5mC]) [compound 771663]
- % inhibition of SMAD7 mRNA expression [1, 3]: 56%
- % inhibition of SMAD7 mRNA expression [2, 4]: 10%
- % inhibition of SMAD7 mRNA expression ([2]; 1250.0 nM, Study 1): 24%
- % inhibition of SMAD7 mRNA expression ([2]; 5000.0 nM, Study 1): 43%
- % inhibition of SMAD7 mRNA expression ([2]; 20000.0 nM, Study 1): 56%
- IC50 [2]: 11 µM

Substance: 771634 (antisense eT*eG*eA*e[5mC]*eG*dG*dA*d[5mC]*d[5mC]*dA*dA*dA*dT*d[5mC]*d[5mC]*eT*eT*e[5mC]*eT*eT) [compound 771634]
- % inhibition of SMAD7 mRNA expression [1, 7]: 53%
- % inhibition of SMAD7 mRNA expression [2, 4]: 0%
- % inhibition of SMAD7 mRNA expression ([2]; 1250.0 nM, Study 1): 3%
- % inhibition of SMAD7 mRNA expression ([2]; 5000.0 nM, Study 1): 40%
- % inhibition of SMAD7 mRNA expression ([2]; 20000.0 nM, Study 1): 36%
- IC50 [2]: > 20 µM

Substance: 771399 (antisense eG*e[5mC]*e[5mC]*e[5mC]*eG*dG*dG*d[5mC]*dA*dG*dG*dA*dG*d[5mC]*dG*eG*e[5mC]*eG*eG*e[5mC]) [compound 771399]
- % Inhibition [1, 3]: 33%
- % inhibition of SMAD7 mRNA expression [2, 4]: 0%
- % inhibition of SMAD7 mRNA expression ([2]; 1250.0 nM, Study 1): 6%
- % inhibition of SMAD7 mRNA expression ([2]; 5000.0 nM, Study 1): 26%
- % inhibition of SMAD7 mRNA expression ([2]; 20000.0 nM, Study 1): 53%
- IC50 [2]: > 20 µM

Substance: 771891 (antisense e[5mC]*eT*e[5mC]*e[5mC]*e[5mC]*dA*dA*dG*d[5mC]*d[5mC]*dT*dA*d[5mC]*dA*dT*eA*eT*eT*eT*e[5mC]) [compound 771891]
- % Inhibition [1, 3]: 56%
- % inhibition of SMAD7 mRNA expression [1, 5]: 65%
- % inhibition of SMAD7 mRNA expression [2, 4]: 0%
- % inhibition of SMAD7 mRNA expression ([2]; 1250.0 nM, Study 1): 0%
- % inhibition of SMAD7 mRNA expression ([2]; 5000.0 nM, Study 1): 10%
- % inhibition of SMAD7 mRNA expression ([2]; 20000.0 nM, Study 1): 33%
- IC50 [2]: > 20 µM

Substance: 771632 (antisense eA*eA*eT*e[5mC]*e[5mC]*dT*dT*d[5mC]*dT*dT*dG*dG*dA*dG*dG*eG*eA*eA*eG*eG) [compound 771632]
- % Inhibition of SMAD7 mRNA [1, 7]: 54%
- % inhibition of SMAD7 mRNA expression [1, 7]: 31%
- % inhibition of SMAD7 mRNA expression [2, 4]: 6%
- % inhibition of SMAD7 mRNA expression ([2]; 1250.0 nM, Study 1): 6%
- % inhibition of SMAD7 mRNA expression ([2]; 5000.0 nM, Study 1): 46%
- % inhibition of SMAD7 mRNA expression ([2]; 20000.0 nM, Study 1): 64%
- IC50 [2]: 9 µM

Substance: 771610 (antisense eA*e[5mC]*e[5mC]*eT*eG*dA*dT*dG*dT*d[5mC]*dA*d[5mC]*d[5mC]*dA*dG*eG*eG*e[5mC]*eA*eG) [compound 771610]
- % inhibition of SMAD7 mRNA expression [1, 7]: 52%
- % inhibition of SMAD7 mRNA expression [2, 4]: 0%
- % inhibition of SMAD7 mRNA expression ([2]; 1250.0 nM, Study 1): 0%
- % inhibition of SMAD7 mRNA expression ([2]; 5000.0 nM, Study 1): 37%
- % inhibition of SMAD7 mRNA expression ([2]; 20000.0 nM, Study 1): 38%
- IC50 [2]: > 20 µM

Substance: 771487 (antisense e[5mC]*eT*eG*e[5mC]*eA*d[5mC]*dG*dG*dT*dA*dA*dA*dG*d[5mC]*d[5mC]*e[5mC]*eG*eT*e[5mC]*e[5mC]) [compound 771487]
- % inhibition of SMAD7 mRNA expression [1, 3]: 45%
- % inhibition of SMAD7 mRNA expression [2, 4]: 4%
- % inhibition of SMAD7 mRNA expression ([2]; 1250.0 nM, Study 1): 0%
- % inhibition of SMAD7 mRNA expression ([2]; 5000.0 nM, Study 1): 7%
- % inhibition of SMAD7 mRNA expression ([2]; 20000.0 nM, Study 1): 26%
- IC50 [2]: > 20 µM

Substance: 771900 (antisense eA*eT*eG*e[5mC]*e[5mC]*d[5mC]*dA*d[5mC]*d[5mC]*dA*dG*dT*d[5mC]*dT*dT*e[5mC]*e[5mC]*eT*eG*eA) [compound 771900]
- % Inhibition [1, 3]: 32%
- % inhibition of SMAD7 mRNA expression [2, 4]: 0%
- % inhibition of SMAD7 mRNA expression ([2]; 1250.0 nM, Study 1): 11%
- % inhibition of SMAD7 mRNA expression ([2]; 5000.0 nM, Study 1): 8%
- % inhibition of SMAD7 mRNA expression ([2]; 20000.0 nM, Study 1): 29%
- IC50 [2]: > 20 µM

Substance: 771552 (antisense e[5mC]*eT*eT*eG*eG*dA*dT*dT*dT*d[5mC]*dT*dG*d[5mC]*dT*dT*e[5mC]*e[5mC]*e[5mC]*e[5mC]*eT) [compound 771552]
- % Inhibition of SMAD7 mRNA [1, 7]: 53%
- % inhibition of SMAD7 mRNA expression [1, 6]: 28%
- % inhibition of SMAD7 mRNA expression [2, 4]: 2%
- % inhibition of SMAD7 mRNA expression ([2]; 1250.0 nM, Study 1): 25%
- % inhibition of SMAD7 mRNA expression ([2]; 5000.0 nM, Study 1): 20%
- % inhibition of SMAD7 mRNA expression ([2]; 20000.0 nM, Study 1): 45%
- IC50 [2]: > 20 µM

Substance: 771734 (antisense e[5mC]*eT*e[5mC]*eA*eA*dA*d[5mC]*d[5mC]*dT*dT*dT*d[5mC]*dA*dG*dA*e[5mC]*e[5mC]*eA*eT*e[5mC]) [compound 771734]
- % Inhibition [1, 3]: 64%
- % inhibition of SMAD7 mRNA expression [2, 4]: 0%
- % inhibition of SMAD7 mRNA expression ([2]; 1250.0 nM, Study 1): 0%
- % inhibition of SMAD7 mRNA expression ([2]; 5000.0 nM, Study 1): 30%
- % inhibition of SMAD7 mRNA expression ([2]; 20000.0 nM, Study 1): 53%
- IC50 [2]: > 20 µM

Substance: 771794 (antisense eG*eA*eA*eG*e[5mC]*dA*dA*dG*dT*d[5mC]*dA*d[5mC]*dT*dG*d[5mC]*e[5mC]*eT*eT*e[5mC]*eT) [compound 771794]
- % inhibition of SMAD7 mRNA expression [1, 6]: 68%
- % inhibition of SMAD7 mRNA expression [2, 4]: 0%
- % inhibition of SMAD7 mRNA expression ([2]; 1250.0 nM, Study 1): 0%
- % inhibition of SMAD7 mRNA expression ([2]; 5000.0 nM, Study 1): 27%
- % inhibition of SMAD7 mRNA expression ([2]; 20000.0 nM, Study 1): 41%
- IC50 [2]: > 20 µM
